Source: ChEMBL document CHEMBL1154899, “Synthesis and biological evaluation of caffeic acid 3,4-dihydroxyphenethyl ester” (J Nat Prod, 2010)

Experiments:
Format in all cases: functional
HCT-116 = assay: Antiproliferative activity against human HCT116 cells assessed as cell growth at 50 uM by SRB assay; conditions: read-out: Activity
SK-OV-3 = assay: Antiproliferative activity against human SKOV3 cells assessed as cell growth at 50 uM by SRB assay; conditions: read-out: Activity
HT-29 = assay: Antiproliferative activity against human HT-29 cells assessed as cell growth at 5 uM by SRB assay; conditions: read-out: Activity
KM12 = assay: Antiproliferative activity against human KM12 cells assessed as cell growth at 5 uM by SRB assay; conditions: read-out: Activity
SW-620 = assay: Antiproliferative activity against human SW620 cells assessed as cell growth at 5 uM by SRB assay; conditions: read-out: Activity
SF-295 = assay: Antiproliferative activity against human SF295 cells assessed as cell growth at 5 uM by SRB assay; conditions: read-out: Activity
SF-539 [1] = assay: Antiproliferative activity against human SF539 cells assessed as cell growth at 5 uM by SRB assay; conditions: read-out: Activity
OVCAR-4 = assay: Antiproliferative activity against human OVCAR4 cells assessed as cell growth at 5 uM by SRB assay; conditions: read-out: Activity
MCF7 = assay: Antiproliferative activity against human MCF7 cells assessed as cell growth at 5 uM by SRB assay; conditions: read-out: Activity
A498 = assay: Antiproliferative activity against human A498 cells assessed as cell growth at 50 uM by SRB assay; conditions: read-out: Activity
DU-145 = assay: Antiproliferative activity against human DU145 cells assessed as cell growth at 50 uM by SRB assay; conditions: read-out: Activity
NCI/ADR-RES [2] = assay: Antiproliferative activity against human NCI/ADR-RES cells assessed as cell growth at 50 uM by SRB assay; conditions: read-out: Activity
NCI/ADR-RES [3] = assay: Antiproliferative activity against human NCI/ADR-RES cells assessed as cell growth at 500 uM by SRB assay; conditions: read-out: Activity
CCRF-CEM = assay: Antiproliferative activity against human CCRF-CEM cells assessed as cell growth at 50 uM by SRB assay; conditions: read-out: Activity
MOLT-4 = assay: Antiproliferative activity against human MOLT4 cells assessed as cell growth at 50 uM by SRB assay; conditions: read-out: Activity
TK-10 = assay: Antiproliferative activity against human TK10 cells assessed as cell growth at 5 mM by SRB assay; conditions: read-out: Activity
HCC 2998 = assay: Antiproliferative activity against human HCC2998 cells assessed as cell growth at […] by SRB assay; conditions: read-out: Activity
K562 = assay: Antiproliferative activity against human K562 cells assessed as cell growth at 500 uM by SRB assay; conditions: read-out: Activity
NCI-H23 = assay: Antiproliferative activity against human NCI-H23 cells assessed as cell growth at 500 uM by SRB assay; conditions: read-out: Activity
OVCAR-5 = assay: Antiproliferative activity against human OVCAR5 cells at 50 uM by SRB assay
HOP-62 = assay: Antiproliferative activity against human HOP62 cells by SRB assay
HOP-92 = assay: Antiproliferative activity against human HOP92 cells by SRB assay
NCI-H522 = assay: Antiproliferative activity against human NCI-H522 cells by SRB assay
SF-539 [4] = assay: Antiproliferative activity against human SF539 cells by SRB assay
[5] = read-out: LC50 (the source's name)
[6] = read-out: pLC50 (the source's name) (converted)

Molecule `O=C(/C=C/c1ccc(O)c(O)c1)OCCc1ccc(O)c(O)c1` has a growth at 50 µM (HCT-116) of 92%, a growth at 50 µM (SK-OV-3) of 88% and a growth at 5 µM (HT-29) of 103%. The growth at 5 µM (KM12) was 95%, the growth at 5 µM (SW-620) was 95% and the growth at 5 µM (SF-295) was 89%. For the same molecule, the growth at 5 µM (SF-539 [1]) was 81%, the growth at 5 µM (OVCAR-4) was 95% and the growth at 5 µM (MCF7) was 108%. The growth at 50 µM (A498) was 95%, the growth at 50 µM (DU-145) was 100% and the growth at 50 µM (NCI/ADR-RES [2]) was 99%. For the same molecule, the growth at 500 µM (NCI/ADR-RES [3]) was 78%, the growth at 50 µM (CCRF-CEM) was 60% and the growth at 50 µM (MOLT-4) was 89%. For the same molecule, the growth at 5000 µM (TK-10) was 40%, the growth (HCC 2998) was 18% and the growth at 500 µM (K562) was 9%. For the same molecule, the growth at 500 µM (NCI-H23) was 78%, the Activity (OVCAR-5) was 97% and the GI50 (HOP-62; read-out: GI50) was 29.1 µM. For the same molecule, the CC50 (HOP-62; [5]) was > 50 µM, the TGI (HOP-62; read-out: TGI) was > 50 µM and the GI50 (HOP-62; read-out: pGI50 (converted)) was 28.8 µM. The CC50 (HOP-62; [6]) was > 50.1 µM, the TGI (HOP-62; read-out: pTGI) was > 50.1 µM and the GI50 (HOP-92; read-out: GI50) was 790 nM. For the same molecule, the CC50 (HOP-92; [5]) was > 50 µM, the TGI (HOP-92; read-out: TGI) was 16.8 µM and the GI50 (HOP-92; read-out: pGI50 (converted)) was 794 nM. For the same molecule, the CC50 (HOP-92; [6]) was > 50.1 µM, the TGI (HOP-92; read-out: pTGI (converted)) was 17 µM and the GI50 (NCI-H522; read-out: GI50) was 1260 nM. For the same molecule, the CC50 (NCI-H522; [5]) was > 50 µM, the TGI (NCI-H522; read-out: TGI) was 8.61 µM and the GI50 (NCI-H522; read-out: pGI50 (converted)) was 1260 nM. The CC50 (NCI-H522; [6]) was > 50.1 µM, the TGI (NCI-H522; read-out: pTGI (converted)) was 8.91 µM and the GI50 (SF-539 [4]; read-out: GI50) was 5.83 µM. The CC50 (SF-539 [4]; [5]) was > 50 µM, the TGI (SF-539 [4]; read-out: TGI) was 24.2 µM and the GI50 (SF-539 [4]; read-out: pGI50 (converted)) was 5.89 µM.
